The structures appear in SMILES notation. In brackets after ≈: the same amount, converted by molar mass.

The first assay concerns Pasteurella multocida PM 6391 (ATCC 43137, reference strain). Kind of assay: MIC, broth-microdilution (CLSI VET01-A4), strain PM 6391. The class given is cell-based. The following applies: Pasteurella multocida strain PM 6391, broth-microdilution; unit assumed. The gist of the method: (§1)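 Doubling dilution series in trays; visual read, MIC = lowest conc. with no visible turbidity; interpretation per CLSI VET01-S3.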
The molecule `CC[C@H](C)[C@H](NC(=O)c1ccc(C#Cc2ccc(CNCC3CCCO3)cc2)cc1)C(=O)NO` (stereo partly shown) [Compound 183] registered an MIC PM 6391 of 1.6 µg/mL (≈ 3.45 µM).

Take `CSC(C)(C)[C@H](NC(=O)c1ccc(C#Cc2ccc(CNC3CC3)cc2)cc1)C(=O)NO` [Compound 235]: the MIC PM 6391 was at most 0.1 µg/mL.

For `CC(C)([C@H](NC(=O)c1ccc(C#Cc2ccc(CNCc3cccs3)cc2)cc1)C(=O)NO)S(C)(=O)=O` [Compound 271], the MIC PM 6391 was at most 0.1 µg/mL.

The molecule `CC[C@H](C)[C@H](NC(=O)c1ccc(C#Cc2cccc(CNC3CC3)c2)cc1)C(=O)NO` [Compound 144] displayed an MIC PM 6391 of 12.5 µg/mL (≈ 29.8 µM).

Another assay concerns Mannheimia haemolytica MH 12587 (1071, BRD field isolate, macrolide-resistance: erm+, E+). Description: MIC, broth-microdilution (CLSI VET01-A4), strain MH 12587. Type of assay: cell-based. The following applies: Mannheimia haemolytica strain MH 12587, broth-microdilution; unit assumed. The method, boiled down:
as §1
With `CC[C@H](C)[C@H](NC(=O)c1ccc(C#Cc2ccc(CNCC3CCCO3)cc2)cc1)C(=O)NO` (stereo partly shown) [Compound 183], the MIC MH 12587 amounted to 1.6 µg/mL (≈ 3.45 µM).

As for `CSC(C)(C)[C@H](NC(=O)c1ccc(C#Cc2ccc(CNC3CC3)cc2)cc1)C(=O)NO` [Compound 235], the MIC MH 12587 worked out at 1.6 µg/mL (≈ 3.54 µM).

Consider `CC(C)([C@H](NC(=O)c1ccc(C#Cc2ccc(CNCc3cccs3)cc2)cc1)C(=O)NO)S(C)(=O)=O` [Compound 271], for which the MIC MH 12587 came to 0.8 µg/mL (≈ 1.48 µM).

`CC[C@H](C)[C@H](NC(=O)c1ccc(C#Cc2cccc(CNC3CC3)c2)cc1)C(=O)NO` [Compound 144] came in with an MIC MH 12587 of 25 µg/mL (≈ 59.6 µM).

For the next assay, the system named is Mannheimia haemolytica MH 13093 (XB0472-6014.1, BRD field isolate). Kind of assay: MIC, broth-microdilution (CLSI VET01-A4), strain MH 13093. The class given is cell-based. The following applies: Mannheimia haemolytica strain MH 13093, broth-microdilution; unit assumed. The gist of the method:
as §1
In general terms: Broth dilution looks for growth in wells or tubes with falling amounts of substance.
`CC[C@H](C)[C@H](NC(=O)c1ccc(C#Cc2ccc(CNCC3CCCO3)cc2)cc1)C(=O)NO` (stereo partly shown) [Compound 183] yielded an MIC MH 13093 of 3.1 µg/mL (≈ 6.69 µM).

Consider `CSC(C)(C)[C@H](NC(=O)c1ccc(C#Cc2ccc(CNC3CC3)cc2)cc1)C(=O)NO` [Compound 235], for which the MIC MH 13093 stood at 0.4 µg/mL (≈ 0.886 µM).

`CC(C)([C@H](NC(=O)c1ccc(C#Cc2ccc(CNCc3cccs3)cc2)cc1)C(=O)NO)S(C)(=O)=O` [Compound 271] showed an MIC MH 13093 of 0.4 µg/mL (≈ 0.741 µM).

`CC[C@H](C)[C@H](NC(=O)c1ccc(C#Cc2cccc(CNC3CC3)c2)cc1)C(=O)NO` [Compound 144]: the MIC MH 13093 came out at 12.5 µg/mL (≈ 29.8 µM).

For a further assay, the system named is Mannheimia haemolytica MH 6357 (M7/2, reference strain, cattle infection strain). Kind of assay: MIC, broth-microdilution (CLSI VET01-A4), strain MH 6357. The class given is cell-based. The following applies: Mannheimia haemolytica strain MH 6357, broth-microdilution; unit assumed. The method, boiled down: as §1
As to `CC[C@H](C)[C@H](NC(=O)c1ccc(C#Cc2ccc(CNCC3CCCO3)cc2)cc1)C(=O)NO` (stereo partly shown) [Compound 183], the MIC MH 6357 amounted to 1.6 µg/mL (≈ 3.45 µM).

`CSC(C)(C)[C@H](NC(=O)c1ccc(C#Cc2ccc(CNC3CC3)cc2)cc1)C(=O)NO` [Compound 235] gave an MIC MH 6357 of 0.4 µg/mL (≈ 0.886 µM).

`CC(C)([C@H](NC(=O)c1ccc(C#Cc2ccc(CNCc3cccs3)cc2)cc1)C(=O)NO)S(C)(=O)=O` [Compound 271] had an MIC MH 6357 of 0.4 µg/mL (≈ 0.741 µM).

`CC[C@H](C)[C@H](NC(=O)c1ccc(C#Cc2cccc(CNC3CC3)c2)cc1)C(=O)NO` [Compound 144] displayed an MIC MH 6357 of 6.3 µg/mL (≈ 15 µM).

In a further assay the test system is Mannheimia haemolytica MH 13065 (XB0446-6003.9, BRD field isolate). Description: MIC, broth-microdilution (CLSI VET01-A4), strain MH 13065. The class given is cell-based. The following applies: Mannheimia haemolytica strain MH 13065, broth-microdilution; unit assumed. The method, boiled down:
as §1
With `CC[C@H](C)[C@H](NC(=O)c1ccc(C#Cc2ccc(CNCC3CCCO3)cc2)cc1)C(=O)NO` (stereo partly shown) [Compound 183], the MIC MH 13065 was determined as 3.1 µg/mL (≈ 6.69 µM).

Molecule `CSC(C)(C)[C@H](NC(=O)c1ccc(C#Cc2ccc(CNC3CC3)cc2)cc1)C(=O)NO` [Compound 235] displayed an MIC MH 13065 of 0.4 µg/mL (≈ 0.886 µM).

`CC(C)([C@H](NC(=O)c1ccc(C#Cc2ccc(CNCc3cccs3)cc2)cc1)C(=O)NO)S(C)(=O)=O` [Compound 271]: the MIC MH 13065 is 0.2 µg/mL (≈ 0.371 µM).

`CC[C@H](C)[C@H](NC(=O)c1ccc(C#Cc2cccc(CNC3CC3)c2)cc1)C(=O)NO` [Compound 144] returned an MIC MH 13065 of 12.5 µg/mL (≈ 29.8 µM).

The next assay concerns Mannheimia haemolytica MH 6374 (ATCC 33396, reference strain). Description: MIC, broth-microdilution (CLSI VET01-A4), strain MH 6374. The class given is cell-based. The following applies: Mannheimia haemolytica strain MH 6374, broth-microdilution; unit assumed. The gist of the method: as §1
Molecule `CC[C@H](C)[C@H](NC(=O)c1ccc(C#Cc2ccc(CNCC3CCCO3)cc2)cc1)C(=O)NO` (stereo partly shown) [Compound 183] showed an MIC MH 6374 of 3.1 µg/mL (≈ 6.69 µM).

`CSC(C)(C)[C@H](NC(=O)c1ccc(C#Cc2ccc(CNC3CC3)cc2)cc1)C(=O)NO` [Compound 235]: the MIC MH 6374 was determined as 0.8 µg/mL (≈ 1.77 µM).

In turn, `CC(C)([C@H](NC(=O)c1ccc(C#Cc2ccc(CNCc3cccs3)cc2)cc1)C(=O)NO)S(C)(=O)=O` [Compound 271] yielded an MIC MH 6374 of 0.2 µg/mL (≈ 0.371 µM).

Molecule `CC[C@H](C)[C@H](NC(=O)c1ccc(C#Cc2cccc(CNC3CC3)c2)cc1)C(=O)NO` [Compound 144] registered an MIC MH 6374 of 12.5 µg/mL (≈ 29.8 µM).

The subject of the next assay is Pasteurella multocida PM 10775 (080130003051, BRD field isolate). Description: MIC, broth-microdilution (CLSI VET01-A4), strain PM 10775. The following applies: Pasteurella multocida strain PM 10775, broth-microdilution; unit assumed. Type of assay: cell-based. The method, boiled down: as §1
For `CC[C@H](C)[C@H](NC(=O)c1ccc(C#Cc2ccc(CNCC3CCCO3)cc2)cc1)C(=O)NO` (stereo partly shown) [Compound 183], the MIC PM 10775 is at most 0.1 µg/mL.

In turn, `CSC(C)(C)[C@H](NC(=O)c1ccc(C#Cc2ccc(CNC3CC3)cc2)cc1)C(=O)NO` [Compound 235] displayed an MIC PM 10775 of at most 0.1 µg/mL.

Regarding `CC(C)([C@H](NC(=O)c1ccc(C#Cc2ccc(CNCc3cccs3)cc2)cc1)C(=O)NO)S(C)(=O)=O` [Compound 271], the MIC PM 10775 was at most 0.1 µg/mL.

`CC[C@H](C)[C@H](NC(=O)c1ccc(C#Cc2cccc(CNC3CC3)c2)cc1)C(=O)NO` [Compound 144] came in with an MIC PM 10775 of 0.4 µg/mL (≈ 0.953 µM).

The test system of the next assay is Pasteurella multocida PM 12080 (IV102277-0093, BRD field isolate). Description: MIC, broth-microdilution (CLSI VET01-A4), strain PM 12080. The class given is cell-based. The following applies: Pasteurella multocida strain PM 12080, broth-microdilution; unit assumed. The gist of the method: as §1
Consider `CC[C@H](C)[C@H](NC(=O)c1ccc(C#Cc2ccc(CNCC3CCCO3)cc2)cc1)C(=O)NO` (stereo partly shown) [Compound 183], for which the MIC PM 12080 was determined as 0.8 µg/mL (≈ 1.73 µM).

`CSC(C)(C)[C@H](NC(=O)c1ccc(C#Cc2ccc(CNC3CC3)cc2)cc1)C(=O)NO` [Compound 235]: the MIC PM 12080 is at most 0.1 µg/mL.

With `CC(C)([C@H](NC(=O)c1ccc(C#Cc2ccc(CNCc3cccs3)cc2)cc1)C(=O)NO)S(C)(=O)=O` [Compound 271], the MIC PM 12080 is at most 0.1 µg/mL.

In the case of `CC[C@H](C)[C@H](NC(=O)c1ccc(C#Cc2cccc(CNC3CC3)c2)cc1)C(=O)NO` [Compound 144], the MIC PM 12080 worked out at 3.1 µg/mL (≈ 7.39 µM).

A further assay has as its system Pasteurella multocida PM 6267 (P 2225 (L386), reference strain, mouse infection strain). Kind of assay: MIC, broth-microdilution (CLSI VET01-A4), strain PM 6267. The class given is cell-based. The following applies: Pasteurella multocida strain PM 6267, broth-microdilution; unit assumed. The gist of the method:
as §1
For `CC[C@H](C)[C@H](NC(=O)c1ccc(C#Cc2ccc(CNCC3CCCO3)cc2)cc1)C(=O)NO` (stereo partly shown) [Compound 183], the MIC PM 6267 was 0.4 µg/mL (≈ 0.863 µM).

`CSC(C)(C)[C@H](NC(=O)c1ccc(C#Cc2ccc(CNC3CC3)cc2)cc1)C(=O)NO` [Compound 235] showed an MIC PM 6267 of at most 0.1 µg/mL.

`CC(C)([C@H](NC(=O)c1ccc(C#Cc2ccc(CNCc3cccs3)cc2)cc1)C(=O)NO)S(C)(=O)=O` [Compound 271] showed an MIC PM 6267 of at most 0.1 µg/mL.

Molecule `CC[C@H](C)[C@H](NC(=O)c1ccc(C#Cc2cccc(CNC3CC3)c2)cc1)C(=O)NO` [Compound 144] had an MIC PM 6267 of 3.1 µg/mL (≈ 7.39 µM).

The next assay deals with Mannheimia haemolytica MH 10720 (154, BRD field isolate). Description: MIC, broth-microdilution (CLSI VET01-A4), strain MH 10720. The class given is cell-based. The following applies: Mannheimia haemolytica strain MH 10720, broth-microdilution; unit assumed. The method, boiled down: as §1
Molecule `CC[C@H](C)[C@H](NC(=O)c1ccc(C#Cc2ccc(CNCC3CCCO3)cc2)cc1)C(=O)NO` (stereo partly shown) [Compound 183] gave an MIC MH 10720 of 0.8 µg/mL (≈ 1.73 µM).

The molecule `CSC(C)(C)[C@H](NC(=O)c1ccc(C#Cc2ccc(CNC3CC3)cc2)cc1)C(=O)NO` [Compound 235] returned an MIC MH 10720 of at most 0.1 µg/mL.

For the molecule `CC(C)([C@H](NC(=O)c1ccc(C#Cc2ccc(CNCc3cccs3)cc2)cc1)C(=O)NO)S(C)(=O)=O` [Compound 271], the MIC MH 10720 is at most 0.1 µg/mL.

The molecule `CC[C@H](C)[C@H](NC(=O)c1ccc(C#Cc2cccc(CNC3CC3)c2)cc1)C(=O)NO` [Compound 144] showed an MIC MH 10720 of 1.6 µg/mL (≈ 3.81 µM).

The values above are taken from US11034650B2, “Compounds useful for treating a Mannheimia haemolytica or Histophilus somni infection” (Intervet Inc., priority 2016, dated 2021).
